Legend:
[1] = molecular target: Tyrosine-protein kinase ABL1 (Homo sapiens) (UniProt P00519); conditions: Compound concentration 1000.0 nM
[2] = tested on: ALK tyrosine kinase receptor (Homo sapiens), Q9UM73 [C1156Y]; conditions: Compound concentration 1000.0 nM
[3] = molecular target: Ankyrin repeat and protein kinase domain-containing protein 1 (Homo sapiens) (UniProt Q8NFD2); conditions: Compound concentration 1000.0 nM
[4] = molecular target: BMP-2-inducible protein kinase (Homo sapiens) (UniProt Q9NSY1); conditions: Compound concentration 1000.0 nM
[5] = molecular target: Bone morphogenetic protein receptor type-1A (Homo sapiens) (UniProt P36894); conditions: Compound concentration 1000.0 nM
[6] = molecular target: Serine/threonine-protein kinase B-raf (Homo sapiens) (UniProt P15056); conditions: Compound concentration 1000.0 nM
[7] = molecular target: Cyclin-dependent kinase 4 (Homo sapiens) (UniProt P11802); conditions: Compound concentration 1000.0 nM
[8] = molecular target: Cyclin-dependent kinase 7 (Homo sapiens) (UniProt P50613); conditions: Compound concentration 1000.0 nM
[9] = molecular target: Cyclin-dependent kinase 8 (Homo sapiens) (UniProt P49336); conditions: Compound concentration 1000.0 nM
[10] = molecular target: Cyclin-dependent kinase-like 3 (Homo sapiens) (UniProt Q8IVW4); conditions: Compound concentration 1000.0 nM
[11] = molecular target: Casein kinase I isoform gamma-3 (Homo sapiens) (UniProt Q9Y6M4); conditions: Compound concentration 1000.0 nM
[12] = molecular target: Death-associated protein kinase 3 (Homo sapiens) (UniProt O43293); conditions: Compound concentration 1000.0 nM
[13] = tested on: Epidermal growth factor receptor (Homo sapiens), P00533 [G719C]; conditions: Compound concentration 1000.0 nM
[14] = molecular target: Mitogen-activated protein kinase 7 (Homo sapiens) (UniProt Q13164); conditions: Compound concentration 1000.0 nM
[15] = molecular target: Vascular endothelial growth factor receptor 3 (Homo sapiens) (UniProt P35916); conditions: Compound concentration 1000.0 nM
[16] = molecular target: Interleukin-1 receptor-associated kinase 1 (Homo sapiens) (UniProt P51617); conditions: Compound concentration 1000.0 nM
[17] = molecular target: Mitogen-activated protein kinase 10 (Homo sapiens) (UniProt P53779); conditions: Compound concentration 1000.0 nM
[18] = molecular target: Mast/stem cell growth factor receptor Kit (Homo sapiens) (UniProt P10721); conditions: Compound concentration 1000.0 nM
[19] = molecular target: Tyrosine-protein kinase Lyn (Homo sapiens) (UniProt P07948); conditions: Compound concentration 1000.0 nM
[20] = molecular target: Serine/threonine-protein kinase MAK (Homo sapiens) (UniProt P20794); conditions: Compound concentration 1000.0 nM
[21] = molecular target: Mitogen-activated protein kinase kinase kinase kinase 5 (Homo sapiens) (UniProt Q9Y4K4); conditions: Compound concentration 1000.0 nM
[22] = molecular target: MAP kinase-activated protein kinase 5 (Homo sapiens) (UniProt Q8IW41); conditions: Compound concentration 1000.0 nM
[23] = molecular target: MAP kinase-interacting serine/threonine-protein kinase 1 (Homo sapiens) (UniProt Q9BUB5); conditions: Compound concentration 1000.0 nM
[24] = molecular target: Serine/threonine-protein kinase PAK 5 (Homo sapiens) (UniProt Q9P286); conditions: Compound concentration 1000.0 nM
[25] = molecular target: 3-phosphoinositide-dependent protein kinase 1 (Homo sapiens) (UniProt O15530); conditions: Compound concentration 1000.0 nM
[26] = molecular target: Protein kinase C delta type (Homo sapiens) (UniProt Q05655); conditions: Compound concentration 1000.0 nM
[27] = molecular target: Protein kinase C eta type (Homo sapiens) (UniProt P24723); conditions: Compound concentration 1000.0 nM
[28] = molecular target: Protein kinase C iota type (Homo sapiens) (UniProt P41743); conditions: Compound concentration 1000.0 nM
[29] = molecular target: cGMP-dependent protein kinase 1 (Homo sapiens) (UniProt Q13976); conditions: Compound concentration 1000.0 nM
[30] = molecular target: RAF proto-oncogene serine/threonine-protein kinase (Homo sapiens) (UniProt P04049); conditions: Compound concentration 1000.0 nM
[31] = molecular target: Serine/threonine-protein kinase RIO1 (Homo sapiens) (UniProt Q9BRS2); conditions: Compound concentration 1000.0 nM
[32] = molecular target: Rho-associated protein kinase 2 (Homo sapiens) (UniProt O75116); conditions: Compound concentration 1000.0 nM
[33] = molecular target: Ribosomal protein S6 kinase alpha-1 (Homo sapiens) (UniProt Q15418); conditions: Compound concentration 1000.0 nM
[34] = molecular target: Tyrosine-protein kinase Srms (Homo sapiens) (UniProt Q9H3Y6); conditions: Compound concentration 1000.0 nM
[35] = molecular target: Tyrosine-protein kinase SYK (Homo sapiens) (UniProt P43405); conditions: Compound concentration 1000.0 nM
[36] = molecular target: Dual specificity testis-specific protein kinase 1 (Homo sapiens) (UniProt Q15569); conditions: Compound concentration 1000.0 nM
[37] = molecular target: Serine/threonine-protein kinase tousled-like 1 (Homo sapiens) (UniProt Q9UKI8); conditions: Compound concentration 1000.0 nM
[38] = molecular target: Dual specificity protein kinase TTK (Homo sapiens) (UniProt P33981); conditions: Compound concentration 1000.0 nM
[39] = molecular target: Tyrosine-protein kinase TXK (Homo sapiens) (UniProt P42681); conditions: Compound concentration 1000.0 nM
[40] = molecular target: Serine/threonine-protein kinase 32A (Homo sapiens) (UniProt Q8WU08); conditions: Compound concentration 1000.0 nM
[41] = molecular target: Mitogen-activated protein kinase kinase kinase 20 (Homo sapiens) (UniProt Q9NYL2); conditions: Compound concentration 1000.0 nM
[42] = molecular target: 5-hydroxytryptamine receptor 1E (Homo sapiens) (UniProt P28566); conditions: Compound concentration 10.0 uM
[43] = molecular target: 5-hydroxytryptamine receptor 2A (Homo sapiens, UniProt P28223); conditions: Compound concentration 10.0 uM
[44] = molecular target: Histamine H1 receptor (Homo sapiens) (UniProt P35367); conditions: Compound concentration 10.0 uM
[45] = molecular target: Histamine H2 receptor (Homo sapiens) (UniProt P25021); conditions: Compound concentration 10.0 uM
[46] = molecular target: Histamine H4 receptor (Homo sapiens) (UniProt Q9H3N8); conditions: Compound concentration 10.0 uM

Chain of Tyrosine-protein kinase TXK (Homo sapiens) (P42681 whole entry): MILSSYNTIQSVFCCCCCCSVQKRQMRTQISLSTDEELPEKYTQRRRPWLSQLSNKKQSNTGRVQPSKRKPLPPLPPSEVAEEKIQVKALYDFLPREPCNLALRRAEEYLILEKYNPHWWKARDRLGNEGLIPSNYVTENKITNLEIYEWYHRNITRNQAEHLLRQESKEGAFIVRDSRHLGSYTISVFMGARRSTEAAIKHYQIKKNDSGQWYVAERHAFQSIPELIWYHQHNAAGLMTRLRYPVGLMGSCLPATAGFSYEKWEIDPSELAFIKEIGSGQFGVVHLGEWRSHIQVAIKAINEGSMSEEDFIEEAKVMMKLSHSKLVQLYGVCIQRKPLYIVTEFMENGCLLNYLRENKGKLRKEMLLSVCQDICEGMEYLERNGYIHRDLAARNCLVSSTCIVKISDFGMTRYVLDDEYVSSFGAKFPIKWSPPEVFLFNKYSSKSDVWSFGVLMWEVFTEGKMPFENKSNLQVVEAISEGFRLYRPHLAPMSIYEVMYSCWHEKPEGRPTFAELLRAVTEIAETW
Chain of Cyclin-dependent kinase 8 (Homo sapiens) (P49336 whole entry): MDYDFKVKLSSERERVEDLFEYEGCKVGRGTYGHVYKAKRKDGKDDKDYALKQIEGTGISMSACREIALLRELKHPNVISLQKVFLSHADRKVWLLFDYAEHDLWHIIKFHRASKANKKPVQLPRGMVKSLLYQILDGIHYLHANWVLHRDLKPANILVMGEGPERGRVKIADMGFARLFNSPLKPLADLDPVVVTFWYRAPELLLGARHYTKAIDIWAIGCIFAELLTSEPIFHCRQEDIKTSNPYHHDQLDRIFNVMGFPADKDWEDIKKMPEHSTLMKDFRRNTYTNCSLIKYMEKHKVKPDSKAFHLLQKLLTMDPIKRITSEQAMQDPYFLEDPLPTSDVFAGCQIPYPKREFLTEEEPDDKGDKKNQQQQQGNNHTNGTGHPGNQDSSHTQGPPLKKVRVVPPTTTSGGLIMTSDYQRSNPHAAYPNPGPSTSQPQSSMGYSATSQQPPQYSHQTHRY
Chain of Mast/stem cell growth factor receptor Kit (Homo sapiens) (P10721 whole entry): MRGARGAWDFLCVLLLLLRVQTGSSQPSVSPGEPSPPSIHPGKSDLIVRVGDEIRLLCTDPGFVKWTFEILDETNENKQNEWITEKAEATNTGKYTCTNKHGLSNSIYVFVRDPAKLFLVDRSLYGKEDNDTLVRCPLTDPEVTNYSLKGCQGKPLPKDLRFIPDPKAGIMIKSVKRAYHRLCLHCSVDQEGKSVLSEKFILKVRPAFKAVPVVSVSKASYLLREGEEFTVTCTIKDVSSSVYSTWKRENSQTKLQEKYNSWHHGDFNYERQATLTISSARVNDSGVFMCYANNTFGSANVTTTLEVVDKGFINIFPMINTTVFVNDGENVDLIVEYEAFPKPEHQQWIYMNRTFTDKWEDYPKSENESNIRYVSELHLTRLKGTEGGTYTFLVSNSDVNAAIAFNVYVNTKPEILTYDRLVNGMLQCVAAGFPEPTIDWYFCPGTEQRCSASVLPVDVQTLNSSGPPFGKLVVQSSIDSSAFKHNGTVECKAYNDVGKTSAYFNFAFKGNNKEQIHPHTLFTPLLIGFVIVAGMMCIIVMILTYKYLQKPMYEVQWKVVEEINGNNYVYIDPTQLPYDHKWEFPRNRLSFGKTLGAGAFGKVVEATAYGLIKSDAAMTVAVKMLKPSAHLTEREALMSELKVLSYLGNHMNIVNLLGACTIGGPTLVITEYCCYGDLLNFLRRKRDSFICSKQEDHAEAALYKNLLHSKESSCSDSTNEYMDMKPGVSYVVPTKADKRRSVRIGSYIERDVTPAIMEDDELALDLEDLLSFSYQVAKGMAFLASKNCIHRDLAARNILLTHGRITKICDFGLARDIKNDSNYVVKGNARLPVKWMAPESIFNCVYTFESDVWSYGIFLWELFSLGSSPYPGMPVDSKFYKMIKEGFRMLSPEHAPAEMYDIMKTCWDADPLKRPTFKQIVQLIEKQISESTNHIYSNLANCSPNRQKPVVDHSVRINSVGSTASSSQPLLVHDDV
Chain of Protein kinase C eta type (Homo sapiens) (P24723 whole entry): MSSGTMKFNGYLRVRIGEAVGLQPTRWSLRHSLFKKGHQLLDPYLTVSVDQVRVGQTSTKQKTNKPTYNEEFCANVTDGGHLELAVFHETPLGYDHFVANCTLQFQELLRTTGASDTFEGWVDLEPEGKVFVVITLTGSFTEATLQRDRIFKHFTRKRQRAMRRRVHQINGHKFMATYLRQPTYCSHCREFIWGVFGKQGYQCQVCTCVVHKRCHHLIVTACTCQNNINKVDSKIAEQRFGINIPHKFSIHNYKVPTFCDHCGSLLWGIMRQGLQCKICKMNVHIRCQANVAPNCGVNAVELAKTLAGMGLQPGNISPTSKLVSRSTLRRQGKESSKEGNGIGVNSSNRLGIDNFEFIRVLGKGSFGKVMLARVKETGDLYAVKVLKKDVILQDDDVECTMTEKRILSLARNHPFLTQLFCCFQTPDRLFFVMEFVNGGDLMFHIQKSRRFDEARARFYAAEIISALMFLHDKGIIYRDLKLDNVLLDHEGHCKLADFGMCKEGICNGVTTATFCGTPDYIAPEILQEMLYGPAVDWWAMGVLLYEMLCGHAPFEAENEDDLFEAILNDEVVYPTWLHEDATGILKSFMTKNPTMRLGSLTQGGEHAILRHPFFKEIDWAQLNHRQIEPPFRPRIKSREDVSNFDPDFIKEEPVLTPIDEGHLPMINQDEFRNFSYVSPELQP
Chain of Death-associated protein kinase 3 (Homo sapiens) (O43293 whole entry, looked up): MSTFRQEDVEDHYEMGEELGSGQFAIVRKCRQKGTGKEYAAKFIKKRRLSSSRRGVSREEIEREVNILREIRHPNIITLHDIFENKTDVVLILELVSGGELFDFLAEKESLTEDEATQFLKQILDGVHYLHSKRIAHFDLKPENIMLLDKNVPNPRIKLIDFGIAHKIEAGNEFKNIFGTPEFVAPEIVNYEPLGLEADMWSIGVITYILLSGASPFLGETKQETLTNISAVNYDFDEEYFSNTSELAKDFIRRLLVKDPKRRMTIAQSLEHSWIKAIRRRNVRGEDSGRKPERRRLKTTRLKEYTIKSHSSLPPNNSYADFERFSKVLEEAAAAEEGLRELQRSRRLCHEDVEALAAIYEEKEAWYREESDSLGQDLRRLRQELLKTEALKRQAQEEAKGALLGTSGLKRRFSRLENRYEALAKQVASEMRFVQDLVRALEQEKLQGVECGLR
Chain of Rho-associated protein kinase 2 (Homo sapiens) (O75116 whole entry, looked up): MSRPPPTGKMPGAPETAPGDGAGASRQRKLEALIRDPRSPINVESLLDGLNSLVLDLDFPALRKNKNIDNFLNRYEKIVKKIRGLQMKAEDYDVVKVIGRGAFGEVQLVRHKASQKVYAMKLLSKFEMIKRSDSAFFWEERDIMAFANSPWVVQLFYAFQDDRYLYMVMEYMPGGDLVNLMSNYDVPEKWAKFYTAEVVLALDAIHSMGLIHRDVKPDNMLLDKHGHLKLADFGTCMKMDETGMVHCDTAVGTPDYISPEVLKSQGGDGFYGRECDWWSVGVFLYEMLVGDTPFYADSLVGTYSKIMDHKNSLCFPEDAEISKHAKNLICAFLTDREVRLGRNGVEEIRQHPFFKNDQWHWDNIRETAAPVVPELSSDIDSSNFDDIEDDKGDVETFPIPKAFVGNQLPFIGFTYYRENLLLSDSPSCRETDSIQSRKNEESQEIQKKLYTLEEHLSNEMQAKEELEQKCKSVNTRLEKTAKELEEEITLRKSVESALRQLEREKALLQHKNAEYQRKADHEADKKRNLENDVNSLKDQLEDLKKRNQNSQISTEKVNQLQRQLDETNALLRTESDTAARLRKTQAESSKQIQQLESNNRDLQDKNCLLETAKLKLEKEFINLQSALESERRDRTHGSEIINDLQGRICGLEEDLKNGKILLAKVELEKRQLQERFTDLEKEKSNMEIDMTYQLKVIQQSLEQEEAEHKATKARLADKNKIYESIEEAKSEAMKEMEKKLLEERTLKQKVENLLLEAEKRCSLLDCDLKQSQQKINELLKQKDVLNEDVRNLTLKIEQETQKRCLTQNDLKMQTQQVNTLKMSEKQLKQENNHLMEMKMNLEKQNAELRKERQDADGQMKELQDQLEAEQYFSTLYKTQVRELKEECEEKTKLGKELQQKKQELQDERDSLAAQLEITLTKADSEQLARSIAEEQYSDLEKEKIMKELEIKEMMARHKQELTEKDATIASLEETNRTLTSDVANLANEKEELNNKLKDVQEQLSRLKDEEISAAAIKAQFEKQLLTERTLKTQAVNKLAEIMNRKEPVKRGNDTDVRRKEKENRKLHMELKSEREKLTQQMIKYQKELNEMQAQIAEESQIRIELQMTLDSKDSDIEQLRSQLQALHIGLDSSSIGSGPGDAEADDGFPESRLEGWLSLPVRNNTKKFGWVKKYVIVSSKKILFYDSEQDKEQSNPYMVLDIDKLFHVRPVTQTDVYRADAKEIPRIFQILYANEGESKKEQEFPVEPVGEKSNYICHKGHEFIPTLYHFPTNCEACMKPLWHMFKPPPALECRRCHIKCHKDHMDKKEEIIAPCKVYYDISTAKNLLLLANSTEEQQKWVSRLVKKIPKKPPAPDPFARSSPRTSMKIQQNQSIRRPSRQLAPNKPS
Chain of Tyrosine-protein kinase Lyn (Homo sapiens) (P07948 2-512 limits assumed): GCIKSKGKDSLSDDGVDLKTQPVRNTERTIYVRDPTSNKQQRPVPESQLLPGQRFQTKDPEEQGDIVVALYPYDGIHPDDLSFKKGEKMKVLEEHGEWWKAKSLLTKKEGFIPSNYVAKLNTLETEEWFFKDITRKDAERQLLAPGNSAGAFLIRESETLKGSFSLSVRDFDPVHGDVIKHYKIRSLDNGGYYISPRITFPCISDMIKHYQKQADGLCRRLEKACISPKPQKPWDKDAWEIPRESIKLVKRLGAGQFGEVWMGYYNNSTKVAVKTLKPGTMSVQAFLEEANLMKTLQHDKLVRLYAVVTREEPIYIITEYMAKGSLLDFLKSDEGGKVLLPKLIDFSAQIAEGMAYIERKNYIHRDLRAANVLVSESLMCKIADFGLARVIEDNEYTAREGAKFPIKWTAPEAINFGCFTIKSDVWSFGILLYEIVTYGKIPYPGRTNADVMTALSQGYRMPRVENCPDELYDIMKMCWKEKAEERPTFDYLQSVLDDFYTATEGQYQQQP

O=C(NC[C@@H]1[C@H]2CN(C(=O)OCc3cc(C(F)(F)F)cc(C(F)(F)F)c3)C[C@@H]12)c1ccc2[nH]nnc2c1 [BI 2545] gave a residual activity [1] of 87%, a residual activity [2] of 94% and a residual activity [3] of 73%. The residual activity [4] was 85%, the residual activity [5] was 100% and the residual activity [6] was 98%. It also gave a residual activity [7] of 95%, a residual activity [8] of 92% and a residual activity [9] of 100%. It also gave a residual activity [10] of 87%, a residual activity [11] of 89% and a residual activity [12] of 94%. For the same molecule, the residual activity [13] was 100%, the residual activity [14] was 100% and the residual activity [15] was 88%. It also gave a residual activity [16] of 98%, a residual activity [17] of 90% and a residual activity [18] of 90%. It also gave a residual activity [19] of 100%, a residual activity [20] of 100% and a residual activity [21] of 97%. The residual activity [22] was 86%, the residual activity [23] was 90% and the residual activity [24] was 100%. It also gave a residual activity [25] of 96%, a residual activity [26] of 93% and a residual activity [27] of 100%. It also gave a residual activity [28] of 98%, a residual activity [29] of 83% and a residual activity [30] of 100%. It also gave a residual activity [31] of 69%, a residual activity [32] of 90% and a residual activity [33] of 94%. The residual activity [34] was 83%, the residual activity [35] was 100% and the residual activity [36] was 79%. The residual activity [37] was 68%, the residual activity [38] was 91% and the residual activity [39] was 84%. It also gave a residual activity [40] of 72%, a residual activity [41] of 86% and an inhibition [42] of 33.6%. For the same molecule, the inhibition [43] was 51.4%, the inhibition [44] was 12.8% and the inhibition [45] was 28.1%. It also gave an inhibition [46] of 39.5%.
Cc1nccc(COC(=O)N2C[C@@H]3[C@@H](CNC(=O)c4ccc5[nH]nnc5c4)[C@@H]3C2)n1 [BI 3017] showed a residual activity [1] of 91%, a residual activity [2] of 76% and a residual activity [3] of 100%. For the same molecule, the residual activity [4] was 100%, the residual activity [5] was 85% and the residual activity [6] was 84%. The residual activity [7] was 80%, the residual activity [8] was 78% and the residual activity [9] was 75%. It also gave a residual activity [10] of 99%, a residual activity [11] of 100% and a residual activity [12] of 92%. The residual activity [13] was 100%, the residual activity [14] was 98% and the residual activity [15] was 100%. It also gave a residual activity [16] of 81%, a residual activity [17] of 100% and a residual activity [18] of 79%. It also gave a residual activity [19] of 100%, a residual activity [20] of 98% and a residual activity [21] of 100%. It also gave a residual activity [22] of 97%, a residual activity [23] of 91% and a residual activity [24] of 92%. For the same molecule, the residual activity [25] was 100%, the residual activity [26] was 95% and the residual activity [27] was 98%. The residual activity [28] was 100%, the residual activity [29] was 100% and the residual activity [30] was 94%. For the same molecule, the residual activity [31] was 100%, the residual activity [32] was 86% and the residual activity [33] was 98%. The residual activity [34] was 87%, the residual activity [35] was 100% and the residual activity [36] was 98%. For the same molecule, the residual activity [37] was 87%, the residual activity [38] was 89% and the residual activity [39] was 94%. The residual activity [40] was 94%, the residual activity [41] was 90% and the inhibition [42] was 31.8%. It also gave an inhibition [43] of 7.65%, an inhibition [44] of 18.1% and an inhibition [45] of -0.15%. It also gave an inhibition [46] of 7.45%.
